US9504668B2 (priority 2013, dated 2016)

Test system: Mice
Experiment: animal or person
Assay type: in vivo
Conditions: Mus musculus, po, read-out: MES test ED50

Structure (SMILES)	ED50 [mg/kg]
COCO[C@@H](c1cccc(I)c1)[C@H](C)OC(N)=O [Example 52, 1-(3-iodophenyl)-(S)-1-methoxymethoxypropyl-(S)-2-carbamate]	24.7
COCO[C@@H](c1ccccc1I)[C@H](C)OC(N)=O [Example 20, 1-(2-iodophenyl)-(S)-1-methoxymethoxypropyl-(S)-2-carbamate]	29.5
CO[C@@H](c1ccccc1I)[C@H](C)OC(N)=O [Example 143, 1-(2-iodophenyl)-(S)-1-methoxypropyl-(S)-2-carbamate]	15.7
C[C@@H](OC(N)=O)[C@H](OC(N)=O)c1ccccc1F [Example 289, 1-(2-fluorophenyl)-(R)-1-carbamoyloxypropyl-(R)-2-carbamate]	56.2
CC[C@H](OC(N)=O)[C@@H](OC)c1ccccc1I [Example 151, 1-(2-iodophenyl)-(S)-1-methoxybutyl-(S)-2-carbamate]	37
CO[C@@H](c1ccccc1Cl)[C@H](C)OC(N)=O [Example 124, 1-(2-chlorophenyl)-(S)-1-methoxypropyl-(S)-2-carbamate]	15.6
C[C@@H](OC(N)=O)[C@H](OC(N)=O)c1ccccc1Cl [Example 250, 1-(2-chlorophenyl)-(R)-2-carbamoyloxypropyl-(R)-1-carbamate]	46.3
COCO[C@@H](c1ccccc1Cl)[C@H](C)OC(N)=O [Example 1, 1-(2-chlorophenyl)-(S)-1-methoxymethoxypropyl-(S)-2-carbamate]	21.6
CO[C@@H](c1ccccc1F)[C@H](C)OC(N)=O [Example 135, 1-(2-fluorophenyl)-(S)-1-methoxypropyl-(S)-2-carbamate]	12.5

Same assay, conditions: Mus musculus, po, read-out: MES test Protection %

Structure (SMILES)	responders at 90 mg/kg [%]	responders at 50 mg/kg [%]	responders at 56 mg/kg [%]	responders at 30 mg/kg [%]	responders at 100 mg/kg [%]
COCO[C@@H](C)[C@@H](OC(N)=O)c1ccccc1F [Example 284, 1-(2-fluorophenyl)-(S)-2-methoxymethoxypropyl-1-carbamate]	33.3	–	–	–	–
COCO[C@@H](c1cccc(Cl)c1Cl)[C@H](C)OC(N)=O [Example 68, 1-(2,3-dichlorophenyl)-(S)-1-methoxymethoxypropyl-(S)-2-carbamate]	100	–	–	–	–
CCCC[C@H](OC(N)=O)[C@@H](OCOC)c1ccccc1I [Example 44, 1-(2-iodophenyl)-(S)-1-methoxymethoxyhexyl-(S)-2-carbamate]	100	–	–	–	–
C[C@H](OC(N)=O)[C@@H](OC(N)=O)c1c(Cl)cccc1Cl [Example 267, 1-(2,6-dichlorophenyl)-(S)-1-carbamoyloxypropyl-(S)-2-carbamate]	–	16.6	–	–	–
CO[C@H](c1ccccc1Cl)[C@H](C)OC(N)=O [Example 194, 1-(2-chlorophenyl)-(R)-1-methoxypropyl-(S)-2-carbamate]	100	–	–	–	–
CO[C@@H](c1cccc(Cl)c1Cl)[C@H](C)OC(N)=O [Example 191, 1-(2,3-dichlorophenyl)-(S)-1-methoxypropyl-(S)-2-carbamate]	100	–	–	–	–
COCO[C@@H](c1ccccc1I)[C@@H](OC(N)=O)C(C)C [Example 36, 1-(2-iodophenyl)-(S)-1-methoxymethoxy-3-methyl-butyl-(S)-2-carbamate]	100	–	–	–	–
C[C@@H](OC(N)=O)[C@H](OC(N)=O)c1c(F)cccc1F [Example 292, 1-(2,6-difluorophenyl)-(R)-1-carbamoyloxypropyl-(R)-2-carbamate]	–	–	33.3	–	–
COCO[C@@H](C)[C@@H](OC(N)=O)c1ccccc1Cl [Example 274, 1-(2-chlorophenyl)-(S)-2-methoxymethoxypropyl-(S)-1-carbamate]	100	–	–	–	–
CCCC[C@H](OC(N)=O)[C@@H](OCOC)c1ccccc1Cl [Example 11, 1-(2-chlorophenyl)-(S)-1-methoxymethoxyhexyl-(S)-2-carbamate]	100	–	–	–	–
CC[C@H](OC(N)=O)[C@@H](OCOC)c1ccccc1I [Example 28, 1-(2-iodophenyl)-(S)-1-methoxymethoxybutyl-(S)-2-carbamate]	33.3	–	–	–	–
CO[C@@H](C)[C@@H](OC(N)=O)c1ccccc1Cl [Example 275, 1-(2-chlorophenyl)-(S)-2-methoxypropyl-(S)-1-carbamate]	100	–	–	–	–
COCO[C@H](c1ccccc1Cl)[C@@H](C)OC(N)=O [Example 69, 1-(2-chlorophenyl)-(R)-1-methoxymethoxypropyl-(R)-2-carbamate]	66.6	–	–	–	–
CCCC[C@H](OC(N)=O)[C@@H](OC)c1ccccc1I [Example 167, 1-(2-iodophenyl)-(S)-1-methoxyhexyl-(S)-2-carbamate]	33.3	–	–	–	–
COCO[C@H](c1cc(Cl)ccc1Cl)[C@@H](C)OC(N)=O [Example 273, 1-(2,5-dichlorophenyl)-(R)-1-methoxymethoxypropyl-(R)-2-carbamate]	–	–	–	33.3	–
CO[C@@H](c1ccccc1Cl)[C@@H](C)OC(N)=O [Example 195, 1-(2-chlorophenyl)-(S)-1-methoxypropyl-(R)-2-carbamate]	100	–	–	–	–
CC[C@H](OC(N)=O)[C@@H](OCOC)c1ccccc1Cl [Example 9, 1-(2-chlorophenyl)-(S)-1-methoxymethoxybutyl-(S)-2-carbamate]	100	–	–	–	–
COCO[C@@H](c1ccccc1Cl)[C@@H](OC(N)=O)C(C)C [Example 10, 1-(2-chlorophenyl)-(S)-1-methoxymethoxy-3-methyl-butyl-(S)-2-carbamate]	100	–	–	–	–

Structure (SMILES)	responders at 90 mg/kg [%]	responders at 50 mg/kg [%]	responders at 56 mg/kg [%]	responders at 30 mg/kg [%]	responders at 100 mg/kg [%]
COCO[C@H](c1c(Cl)cccc1Cl)[C@@H](C)OC(N)=O [Example 107, 1-(2,6-dichlorophenyl)-(R)-1-methoxymethoxypropyl-(R)-2-carbamate]	–	–	–	33.3	–
CC(OC(N)=O)C(OC(N)=O)c1ccccc1Cl (centres unmarked) [Example 251, 1-(2-chlorophenyl)-2-carbamoyloxypropyl-1-carbamate]	–	–	–	–	33.3
CO[C@@H](c1ccc(F)cc1)[C@H](C)OC(N)=O [Example 179, 1-(4-fluorophenyl)-(S)-1-methoxypropyl-(S)-2-carbamate]	33.3	–	–	–	–
COCO[C@@H](c1ccccc1Cl)[C@@H](C)OC(N)=O [Example 72, 1-(2-chlorophenyl)-(S)-1-methoxymethoxypropyl-(R)-2-carbamate]	100	–	–	–	–
C[C@@H](OC(N)=O)[C@H](OC(N)=O)c1c(Cl)cccc1Cl [Example 290, 1-(2,6-dichlorophenyl)-(R)-1-carbamoyloxypropyl-(R)-2-carbamate]	–	–	–	33.3	–
C[C@H](OC(N)=O)[C@@H](OC(N)=O)c1c(F)cccc1Cl [Example 286, 1-(2-chloro-6-fluorophenyl)-(S)-1-carbamoyloxypropyl-(S)-2-carbamate]	33.3	–	–	–	–
COCO[C@@H](C)[C@@H](OC(N)=O)c1ccccc1I [Example 282, 1-(2-iodophenyl)-(S)-2-methoxymethoxypropyl-1-carbamate]	33.3	–	–	–	–
CO[C@@H](c1ccc(Cl)cc1Cl)[C@H](C)OC(N)=O [Example 183, 1-(2,4-dichlorophenyl)-(S)-1-methoxypropyl-(S)-2-carbamate]	100	–	–	–	–
CO[C@@H](c1cccc(I)c1)[C@@H](OC(N)=O)C(C)C [Example 177, 1-(3-iodophenyl)-(S)-1-methoxy-3-methyl-butyl-(S)-2-carbamate]	66.6	–	–	–	–
C[C@H](OC(N)=O)[C@@H](OC(N)=O)c1ccccc1I [Example 259, 1-(2-iodophenyl)-(S)-1-carbamoyloxypropyl-(S)-2-carbamate]	66.6	–	–	–	–
CCCC[C@@H](OC(N)=O)[C@H](OC)c1ccc(F)cc1 [Example 213, 1-(4-fluorophenyl)-(R)-1-methoxyhexyl-(R)-2-carbamate]	33.3	–	–	–	–
COCO[C@H](c1ccccc1Cl)[C@H](C)OC(N)=O [Example 71, 1-(2-chlorophenyl)-(R)-1-methoxymethoxypropyl-(S)-2-carbamate]	100	–	–	–	–
C[C@H](OC(N)=O)[C@H](OC(N)=O)c1ccccc1Cl [Example 295, 1-(2-chlorophenyl)-(R)-1-carbamoyloxypropyl-(S)-2-carbamate]	100	–	–	–	–
CC[C@@H](OC(N)=O)[C@H](OC)c1ccc(Cl)cc1Cl [Example 232, 1-(2,4-dichlorophenyl)-(R)-1-methoxybutyl-(R)-2-carbamate]	33.3	–	–	–	–
CO[C@@H](C)[C@@H](OC(N)=O)c1ccccc1I [Example 283, 1-(2-iodophenyl)-(S)-2-methoxypropyl-1-carbamate]	100	–	–	–	–
C[C@@H](OC(N)=O)[C@@H](OC(N)=O)c1ccccc1Cl [Example 294, 1-(2-chlorophenyl)-(S)-1-carbamoyloxypropyl-(R)-2-carbamate]	66.6	–	–	–	–
COCO[C@H](COC(N)=O)c1ccccc1I [Example 278, 1-(2-iodophenyl)-(S)-1-methoxymethoxyethyl-2-carbamate]	–	–	–	33.3	–

Test system: Male Sprague-Dawley rats
Experiment: animal or person
Assay type: in vivo
Conditions: Rattus norvegicus, iv, read-out: Intervention Protection %

Structure (SMILES)	responders at 46 mg/kg [%]	responders at 23 mg/kg [%]
COCO[C@@H](c1cccc(Cl)c1Cl)[C@H](C)OC(N)=O [Example 68, 1-(2,3-dichlorophenyl)-(S)-1-methoxymethoxypropyl-(S)-2-carbamate]	40	–
CO[C@H](c1ccccc1Cl)[C@H](C)OC(N)=O [Example 194, 1-(2-chlorophenyl)-(R)-1-methoxypropyl-(S)-2-carbamate]	83.3	–
CO[C@@H](c1cccc(Cl)c1Cl)[C@H](C)OC(N)=O [Example 191, 1-(2,3-dichlorophenyl)-(S)-1-methoxypropyl-(S)-2-carbamate]	100	–
COCO[C@@H](c1cccc(I)c1)[C@H](C)OC(N)=O [Example 52, 1-(3-iodophenyl)-(S)-1-methoxymethoxypropyl-(S)-2-carbamate]	100	–
COCO[C@@H](c1ccccc1I)[C@H](C)OC(N)=O [Example 20, 1-(2-iodophenyl)-(S)-1-methoxymethoxypropyl-(S)-2-carbamate]	16.7	–
COCO[C@@H](C)[C@@H](OC(N)=O)c1ccccc1Cl [Example 274, 1-(2-chlorophenyl)-(S)-2-methoxymethoxypropyl-(S)-1-carbamate]	33.3	–
CCCC[C@H](OC(N)=O)[C@@H](OCOC)c1ccccc1Cl [Example 11, 1-(2-chlorophenyl)-(S)-1-methoxymethoxyhexyl-(S)-2-carbamate]	66.7	–
CC[C@H](OC(N)=O)[C@@H](OCOC)c1ccccc1I [Example 28, 1-(2-iodophenyl)-(S)-1-methoxymethoxybutyl-(S)-2-carbamate]	33.3	–
CO[C@@H](c1ccccc1Cl)[C@@H](C)OC(N)=O [Example 195, 1-(2-chlorophenyl)-(S)-1-methoxypropyl-(R)-2-carbamate]	50	–
CC[C@H](OC(N)=O)[C@@H](OCOC)c1ccccc1Cl [Example 9, 1-(2-chlorophenyl)-(S)-1-methoxymethoxybutyl-(S)-2-carbamate]	33.3	–
COCO[C@@H](c1ccccc1Cl)[C@@H](OC(N)=O)C(C)C [Example 10, 1-(2-chlorophenyl)-(S)-1-methoxymethoxy-3-methyl-butyl-(S)-2-carbamate]	66.7	–
COCO[C@@H](c1ccccc1Cl)[C@@H](C)OC(N)=O [Example 72, 1-(2-chlorophenyl)-(S)-1-methoxymethoxypropyl-(R)-2-carbamate]	50	–
CO[C@@H](c1ccccc1I)[C@H](C)OC(N)=O [Example 143, 1-(2-iodophenyl)-(S)-1-methoxypropyl-(S)-2-carbamate]	–	66.7
CC[C@H](OC(N)=O)[C@@H](OC)c1ccccc1I [Example 151, 1-(2-iodophenyl)-(S)-1-methoxybutyl-(S)-2-carbamate]	100	–
COCO[C@@H](c1ccccc1Cl)[C@H](C)OC(N)=O [Example 1, 1-(2-chlorophenyl)-(S)-1-methoxymethoxypropyl-(S)-2-carbamate]	50	–
CO[C@@H](c1ccc(Cl)cc1Cl)[C@H](C)OC(N)=O [Example 183, 1-(2,4-dichlorophenyl)-(S)-1-methoxypropyl-(S)-2-carbamate]	100	–
COCO[C@H](c1ccccc1Cl)[C@H](C)OC(N)=O [Example 71, 1-(2-chlorophenyl)-(R)-1-methoxymethoxypropyl-(S)-2-carbamate]	100	–
CO[C@@H](c1ccccc1F)[C@H](C)OC(N)=O [Example 135, 1-(2-fluorophenyl)-(S)-1-methoxypropyl-(S)-2-carbamate]	100	–

Test system: Male Sprague-Dawley rats
Experiment: animal or person
Assay type: in vivo
Conditions: Rattus norvegicus, ip, read-out: Prevention ED50

Structure (SMILES)	ED50 [mg/kg]
COCO[C@@H](c1ccccc1I)[C@H](C)OC(N)=O [Example 20, 1-(2-iodophenyl)-(S)-1-methoxymethoxypropyl-(S)-2-carbamate]	25.9
CO[C@@H](c1ccccc1I)[C@H](C)OC(N)=O [Example 143, 1-(2-iodophenyl)-(S)-1-methoxypropyl-(S)-2-carbamate]	19.6
COCO[C@@H](c1ccccc1Cl)[C@H](C)OC(N)=O [Example 1, 1-(2-chlorophenyl)-(S)-1-methoxymethoxypropyl-(S)-2-carbamate]	26.6

Same assay, conditions: rat, in vivo

Structure (SMILES)	Prevention Protection %
COCO[C@@H](c1cccc(I)c1)[C@H](C)OC(N)=O [Example 52, 1-(3-iodophenyl)-(S)-1-methoxymethoxypropyl-(S)-2-carbamate]	^a20 (16.7%)
CC[C@H](OC(N)=O)[C@@H](OCOC)c1ccccc1I [Example 28, 1-(2-iodophenyl)-(S)-1-methoxymethoxybutyl-(S)-2-carbamate]	^a50 (100%)
C[C@@H](OC(N)=O)[C@H](OC(N)=O)c1ccccc1F [Example 289, 1-(2-fluorophenyl)-(R)-1-carbamoyloxypropyl-(R)-2-carbamate]	^a80 (16.7%)
CC[C@H](OC(N)=O)[C@@H](OC)c1ccccc1I [Example 151, 1-(2-iodophenyl)-(S)-1-methoxybutyl-(S)-2-carbamate]	^a60 (100%)
C[C@@H](OC(N)=O)[C@H](OC(N)=O)c1ccccc1Cl [Example 250, 1-(2-chlorophenyl)-(R)-2-carbamoyloxypropyl-(R)-1-carbamate]	^a60 (16.7%)
CO[C@@H](c1ccccc1F)[C@H](C)OC(N)=O [Example 135, 1-(2-fluorophenyl)-(S)-1-methoxypropyl-(S)-2-carbamate]	^a20 (16.7%)

Same assay, conditions: rat, in vivo, ip

Structure (SMILES)	Prevention Peak Time [h]
COCO[C@@H](c1ccccc1I)[C@H](C)OC(N)=O [Example 20, 1-(2-iodophenyl)-(S)-1-methoxymethoxypropyl-(S)-2-carbamate]	1
CO[C@@H](c1ccccc1I)[C@H](C)OC(N)=O [Example 143, 1-(2-iodophenyl)-(S)-1-methoxypropyl-(S)-2-carbamate]	1
COCO[C@@H](c1ccccc1Cl)[C@H](C)OC(N)=O [Example 1, 1-(2-chlorophenyl)-(S)-1-methoxymethoxypropyl-(S)-2-carbamate]	0.5
